Data from US7935720B2, “Crystal of substituted phenylalkanoic acid ester and process for producing the same” (Asahi Kasei Pharma Corporation, priority 2006, dated 2011).

Experiments:
[1] = tested on: footpad edema in rat adjuvant arthritis; assay: Prophylactic and therapeutic effect against rat adjuvant arthritis; assay type: in vivo; conditions: oral, 0.1 to 50 mg/0.2 ml/kg, suspended in 0.5% methylcellulose; compared with the positive control group
Protocol: For the compounds of the invention, a suppressive effect against footpad edema in rat adjuvant arthritis, which is a disease model for chronic rheumatoid arthritis as being one of autoimmune diseases and also a chronic inflammatory disease, was investigated according to the method of International Patent Publication No. WO 03/70686. The test compound was suspended in purified water containing 0.5% methylcellulose, and was orally administered to test animals at a dose of 0.1 to 50 mg/0.2 ml/kg.

[2] = Measurement of water content after filtration; assay type: physicochemical; conditions: wet crystals after filtration and dehydration; calculated from weight of wet crystals and weight after drying
Protocol: The respective water contents of the crystals obtained in Example 10 and Example 11 were calculated from the weight of the wet crystals and the weight of the crystals after drying.

[3] = Solubility test in Japanese Pharmacopoeia disintegration test fluids (HPLC); assay type: physicochemical; conditions: for Solubility to 1st fluid for disintegration test of Japanese Pharmacopoeia (pH 1.2) / Solubility to 2nd fluid for disintegration test of Japanese Pharmacopoeia (pH 6.8): shaken for 24 hours at 37° C.
Protocol: The type A crystals of compound 1 of the invention prepared according to Example 3, and the type B crystals of compound 1 of the invention prepared according to Example 4 were respectively weighed to 10 mg in a 10-mL centrifuge tube, 3 mL each of 1st fluid for disintegration test of Japanese Pharmacopoeia (pH 1.2) was added respectively, and the mixture solutions were shaken for 24 hours at 37° C. After the shaking, the solutions were filtered, 1 mL of each filtrate was exactly pipeted, and 1 mL of acetonitrile was exactly added to obtain a sample solution.
The sample solutions were analyzed by using HPLC technique with the following conditions and the concentration of the compound in the sample solution was determined by comparing it with that of a standard solution having an already known concentration under the following HPLC conditions, to determine the solubility.
The same test was performed with 2nd fluid for disintegration test of Japanese Pharmacopoeia (pH 6.8), to determine the solubility.
Detector: Ultraviolet absorption spectrometer (wavelength: 235 nm)
Mobile phase: 50 mmol/L sodium dihydrogen phosphate/acetonitrile (55:45)
Column: YMC-Pack Pro C18, internal diameter: 4.6 mm, length: 15 cm (YMC Corporation)
Column temperature: 40° C.

[4] = tested on: prostaglandin production; conditions: reported in Patent Document 1; cited from earlier work
[5] = tested on: leukotriene production; conditions: reported in Patent Document 1; cited from earlier work

Water content [2] [%]	Solubility to 1st fluid for disintegration test of Japanese Pharmacopoeia (pH 1.2) [3] [mg/mL]	Solubility to 2nd fluid for disintegration test of Japanese Pharmacopoeia (pH 6.8) [3] [mg/mL]	Solubility of type A crystal relative to type B crystal ([3]; 1st fluid (pH 1.2) and 2nd fluid (pH 6.8))	SMILES	Suppression of footpad edema in rat adjuvant arthritis [1]	Prostaglandin production suppressing effect [4]	Leukotriene production suppressing effect [5]
39.3	0.01	0.02		Cn1ncc2cc(-c3cc(CCC(=O)O)cc(N)c3OC3Cc4ccccc4C3)ccc21 [Type B crystal, 3-[3-amino-4-(indan-2-yloxy)-5-(1-methyl-1H-indazol-5-yl)phenyl]propionic acid]	suppressed footpad edema		
				Cn1ncc2cc(-c3cc(CCC(=O)O)cc(N)c3OC3Cc4ccccc4C3)ccc21 [Compound 1, 3-[3-amino-4-(indan-2-yloxy)-5-(1-methyl-1H-indazol-5-yl)phenyl]propionic acid]		prostaglandin production suppressing effect	leukotriene production suppressing effect
52.5	0.03	0.06	three-fold greater	Cn1ncc2cc(-c3cc(CCC(=O)O)cc(N)c3OC3Cc4ccccc4C3)ccc21 [Type A crystal, 3-[3-amino-4-(indan-2-yloxy)-5-(1-methyl-1H-indazol-5-yl)phenyl]propionic acid]	suppressed footpad edema		
